Series [1] has as its system Tc-HST-2 cells with HST-2 cells expressing HLA-A31 antigen as target cells. Kind of series: CTL assay using a TNF-releasing method (Wehi164/MTT). Conditions: peptide final concentration 10 μM, 1 μM or 0.1 μM; HST-2 target cells; target cells to CTL 1:100; 12 hours. It counts as cell-based, human. As to the method: That is, in the TNF-releasing method, the HLA-A31-positive HST-2 or KG-1 cell is mixed with the peptide of the present invention, and the mixture is incubated at 37° C. for 3 hours. Then, Tc-HST-2 cells are added thereto, and the resulting mixture is further incubated for 12 hours. The activity of any TNF released in the supernatant is measured to detect the CTL inducibility.
The TNF activity can be measured by the method described in Immunogenetics, vol. 35, p. 145 (1992).
That is, TNF-sensitive Wehi164 cells are mixed with a test sample, and the mixture is incubated for 24 hours. Then, an MTT [3-(4,5-dimethylthiazol-2-yl)-2,5-diphenyl tetrazolium bromide] solution is added to the culture, and the resulting mixture is further incubated for 3 hours. After any formazan converted within mitochondria is dissolved in acid propanol, the amount thereof is measured in terms of an absorbance at OD570 to detect the TNF activity.
That is, 1×10^4 HST-2 cells expressing HLA-A31 antigen were suspended as target cells in 100 μl of the solution, and 5 μl of each of the above-mentioned four synthetic peptides were added thereto such that the final concentration reached 10 μM, 1 μM or 0.1 μM. The mixture was further incubated under the same conditions for 3 hours to bind the HLA-bound peptide to the HLA molecule. Subsequently, Tc-HST-2 cells (1×10^6 cells/ml) were added thereto in an amount of 100 μl, and the resulting mixture was further incubated for 12 hours under the same conditions.
After 12 hours of incubation, 30 μl of the supernatant formed was collected, and the TNF activity released in the supernatant was measured to detect the CTL inducibility. The TNF activity was measured by the following method.
That is, 7×10^4 Wehi164 cells which are TNF-sensitive cells were suspended in 120 μl of the solution, and 30 μl of the above-obtained supernatant were added thereto. The mixture was incubated for 24 hours. […] Then, the absorbance was measured at a wavelength of 570 nm to measure the TNF activity.

The test system of series [2] is Tc-HST-2 cells with HST-2 or KG-1 cells expressing HLA-A31 antigen as target cells. Nature of the series: CTL inducibility by the 51Cr-releasing method (specific cytotoxicity of Tc-HST-2). It counts as cell-based, human. The settings on record: HLA-bound peptide from HST-2 separated by reversed-phase HPLC; target cells to CTL 1:100; 12 hours incubation. As for the experimental part: That is, HLA-A31-positive HST-2 or KG-1 cells are radio-labeled with sodium chromate containing ^51Cr, and are then mixed with the HLA-bound peptide separated through reversed phase chromatography. The mixture is incubated at 37° C. for 3 hours, and Tc-HST-2 is then added thereto. The resulting mixture is further incubated for 12 hours. The CTL inducibility can be detected by measuring the radio-activity of ^51Cr released in the supernatant.
The CTL inducibility of the HPLC elution fractions against Tc-HST-2 cells was measured as follows. […]
Subsequently, Tc-HST-2 cells (2.5×10^5 cells/ml) were added thereto in an amount of 100 μl, and the mixture was incubated under the same conditions for 12 hours. After 12 hours of incubation, 100 μl of the supernatant formed were collected, and the radioactivity of ^51Cr released in this supernatant was measured using a γ-counter to measure the CTL activity.
The specific cytotoxicity was calculated using the following formula. […]
wherein the minimum release value indicates a measured value of a well filled with target cells alone and a value of ^51Cr naturally released from target cells, and the maximum release value indicates a release value when the cells are destroyed by adding a surfactant, 1% Triton x-100, to target cells.

Where no end group is shown, it is not given here.

On to “Peptide 1-7: peptide containing 7 amino acids starting from the N-terminus of Synthetic Peptide 1 (SEQ ID NO: 4) (YSWMDIS)”, for which, in series [1], the “CTL inducibility of Tc-HST-2 (TNF activity released in the supernatant)” value was “no CTL inducibility”. The same measure, in the same setting: to YSWMDISC [Peptide 1-8] belongs “no CTL inducibility”; to YSWMDISCW [Peptide 1-9], “CTL inducibility of TC-HST-2 was identified”. With “YSWMDISCWI [Peptide 1, Tyr Ser Trp Met Asp Ile Ser cys Trp Ile]”, the “CTL inducibility of Tc-HST-2 (specific cytotoxicity, 51Cr release)” value in series [2] is listed as “exhibiting the CTL inducibility”.

(Values after patent US6368852B1, “Peptide capable of inducing immune response to human gastric cancer and agent for preventing or treating human gastric cancer, containing the peptide” (Ajinomoto Co., Inc., priority 1995, dated 2002).)
